Like-named read-outs stand apart in the source and are kept apart here. Values belong to the compound of their own block, whether it stands above or below them.
Key:
TGF-β1 activation = assay: Macrophage activation assay (LPS-treated IC-21 macrophages plus fetal fibroblast conditioned media, TGF-β1 ELISA); type: cell-based, Mouse; details: for inhibition at 100 µM / inhibition at 50 µM: read-out: Inhibition of TGF-β1 Activation, % control (STD)
Experimental: Cultured macrophages were lifted from the dish with 3 ml of PBS. The PBS was balanced with 15 ml of RPMI-1640 containing 10% FBS. The cells were counted and then seeded in 100 mm plates at 1x10^6 cells/dish. When the cultured macrophages reached approximately 70% confluency (2-3 days) they were washed with PBS and RPMI-1640 medium containing 5% FBS and 10 ng/ml LPS was applied (Figure 1). After 24 h of activation with LPS the cells were washed gently with PBS. At this point conditioned medium from confluent fetal dermal fibroblasts was collected and 5 ml was distributed into each dish containing macrophages. The cells were incubated for an additional 24 h, the media were collected, spun down at 600 x g for 10 min and stored at 4° C before TGF-β1 evaluation by ELISA. Each condition was done in duplicate. The cells, washed with PBS, were harvested for total RNA extraction.
Fetal dermal fibroblasts were seeded in 100 mm dishes at 1x10^6 cell/dish. The cells were grown to confluency (2-3 days). The cultures were washed with PBS and fresh medium, either DMEM supplemented with 10% FBS or AIM-V medium (a serum free medium) for serum-free conditions, was applied for 24 h (Figure 1). The medium was collected and combined in order to obtain a homogenous pool of latent TGF-β1. The collection of the medium was done just prior to application in the macrophage assay.
Each measurement was performed in duplicates.

TGF-β1 [1] = assay: mRNA for TGF-β1 in macrophages, Northern blot; type: cell-based, Mouse; details: combined treatment of LPS with M6P or DCA
Experimental: (§1) The cells were washed with PBS, followed by addition of the extraction buffer provided with the kit (RNeasy RNA extraction kit). The lysed cells were scraped from the dish and collected in microtubes. Samples were either frozen at -70 °C before analysis or directly assessed following manufacturer protocol. Absorbance at 260 nm and 280 nm was measured and the integrity of RNA was evaluated by denaturing formaldehyde agarose gels stained with ethidium bromide.
Northern blot analysis was carried out as described previously (27). Briefly, total RNA samples (5 µg) were diluted in formaldehyde-MOPS buffer and subjected to electrophoresis in a denaturing 1.2 % Sea Kem GTG agarose gel along with the RNA size markers. RNA was transferred to a nitrocellulose membrane by capillary transfer. The blots were prehybridized for 3 h at 42° C in a solution containing 10% dextran sulfate, 2 x Denhardt's solution, 50% formamide, 5 x SSPE (0.75 M Sodium chloride, 0.05 M sodium phosphate, 0.005 M ethylenediaminetetraacetic acid)/ 0.1% SDS, and 250 µg/ml of sheared salmon testis DNA. Hybridization solution was essentially the same except that ^32P dCTP-labeled DNA probe and 150 µg/ml of salmon testis DNA were included. The hybridization was carried out for 16 h at 42° C. […]

TGase II = assay: mRNA for TGase II in macrophages, RT-PCR with densitometry; type: cell-based; details: Mus musculus, Macrophage; macrophages treated with 1 µM hydrocortisone; densitometric analysis of RT-PCR products
Experimental: as §1
(§2) The procedure used to transcribe the total RNA was described in detail previously (28). […]
(§3) A portion of the first strand cDNA reaction was used in PCR, which was carried out in 25 µl containing 16 mM Tris-HCl, pH 8.3, 50 mM KCl, 1.5 mM MgCl2, 0.01 % gelatin, 200 µM of each dNTPs, 1 µM each sense and antisense oligonucleotides and 2.5 units of AmpliTaq DNA polymerase. […] Sizes were determined using Q X 174 DNA/Hae III markers. […] Densitometry was used for quantitative analysis of the ethidium bromide stained gels.
In an attempt to identify the mechanism of this inhibition, the level of mRNA was evaluated for TGase II in macrophages treated with 1 µM hydrocortisone.

M6P/IGF-II receptor = assay: Expression of M6P/IGF-II receptor mRNA in neonatal fibroblasts, semiquantitative RT-PCR; type: cell-based, human
Experimental: (§4) Human neonatal fibroblasts were seeded in 100 mm dishes at 1 x 10^6 cells/dish. […] In addition, cells were treated with two concentrations of Mannose 1-Phosphate (M1P) (100 and 200 µM) for 24 and 48 h. […] Each treatment was run in duplicates and repetitive analyses were performed.
as §1
The procedure used to transcribe the total RNA was described in detail previously (28). Briefly, the reaction was carried out in a total volume of 25 µl containing 1x reverse transcriptase buffer (50 mM Tris-HCl, pH 8.3, 75 mM KCl, 3 mM MgCl2), 10 mM DTT (Dithiothreitol), 2.5 mM each of dNTPs (Deoxynucleotides), 100 µg/ml of acetylated BSA, 4 units of rRNasin (ribonuclease inhibitor), 200 units of SuperScript ™ RNase H^-Reverse Transcriptase, 0.1 µg of oligo (dT)12-18 and 1 µg of total RNA. Incubation was carried out for 1 h at 42 °C and was terminated by the addition of an equal volume of cold water.
A portion of the first strand cDNA reaction was used in PCR, which was carried out in 25 µl containing 16 mM Tris-HCl, pH 8.3, 50 mM KCl, 1.5 mM MgCl2, 0.01 % gelatin, 200 µM of each dNTPs, 1 µM each sense and antisense oligonucleotides and 2.5 units of AmpliTaq DNA polymerase. Amplification was carried out for 35 cycles. Each cycle consisted of denaturation 1 min at 95°C; annealing at 55°C (optimal for the pair of oligonucleotides used) for 2 min; and elongation at 72°C, 3 min. For the final cycle elongation was 7 min. Reaction products were separated by 2% agarose gel electrophoresis and were visualized by ethidium bromide staining. […] Restriction digests were performed in order to confirm PCR product specificity. Densitometry was used for quantitative analysis of the ethidium bromide stained gels.

TGF-β1 [2] = assay: Expression of TGF-β1 mRNA in neonatal fibroblasts, semiquantitative RT-PCR; type: cell-based, human
Experimental: as §4, §1, §2
A portion of the first strand cDNA reaction was used in PCR, which was carried out in 25 µl containing 16 mM Tris-HCl, pH 8.3, 50 mM KCl, 1.5 mM MgCl2, 0.01 % gelatin, 200 µM of each dNTPs, 1 µM each sense and antisense oligonucleotides and 2.5 units of AmpliTaq DNA polymerase. […] Densitometry was used for quantitative analysis of the ethidium bromide stained gels.

M6P/IGF-II receptors = assay: Levels of M6P/IGF-II receptors within wounds treated with M6P; type: in vivo; details: 3 days post-wounding
TGF-β receptor type I = assay: Expression of TGF-β receptor type I mRNA in neonatal fibroblasts, semiquantitative RT-PCR; type: cell-based, human; details: M6P treatment, during the time course (24 and 48 h)
Experimental: as §4, §1, §2, §3

Compound: CN(C)c1cccc2c(S(=O)(=O)NCCCCCN)cccc12 [DCA, monodansylcadaverine]
Inhibition of TGF-β1 Activation, % control (STD) (TGF-β1 activation; 100 µM, listed as Damylcadaverine): 18.3 (1.6) %
Total TGF-β1 (STD) (TGF-β1 activation; LPS+CM with serum, 100 µM): 2302 (219.3) pg/ml
inhibition at 100 µM (TGF-β1 activation; Mus musculus, 100 µM): 18.3%
levels of mRNA for TGF-β1 (TGF-β1 [1]): remained the same

Compound: C[C@]12CCC(=O)C=C1CC[C@@H]1[C@@H]2[C@@H](O)C[C@@]2(C)[C@H]1CC[C@]2(O)C(=O)CO [Hydrocortisone, hydrocortisone]
inhibition at 1 µM (TGF-β1 activation; Mus musculus, read-out: Inhibition of TGF-β1, % Control (STD)): 64%
TGase II mRNA level, % of control at 1 µM (TGase II): 37.5%

Compound: O=P(O)(O)O[C@H]1O[C@H](CO)[C@@H](O)[C@H](O)[C@@H]1O [M1P, alpha-D(+) mannose 1-phosphate]
inhibition at 100 µM (TGF-β1 activation; Mus musculus): 85.9%
M6P/IGF-II receptor mRNA levels (M6P/IGF-II receptor; 100 and 200 µM, 24 and 48 h): no effects
TGF-β1 mRNA levels (TGF-β1 [2]; 100 and 200 µM, 24 and 48 h): no effects

levels of the M6P/IGF-II receptors within the wounds (M6P/IGF-II receptors): downregulated
level of TGF-β receptor type I mRNA (TGF-β receptor type I): unchanged
Compound: O=P(O)(O)OC[C@H]1OC(O)[C@@H](O)[C@@H](O)[C@@H]1O (stereo partly drawn) [M6P, D-mannose 6-phosphate]
Inhibition of TGF-β1 Activation, % control (STD) (TGF-β1 activation; 50 µM): 69.6 (1.7) %
Inhibition of TGF-β1 Activation, % control (STD) (TGF-β1 activation; 100 µM): 32.9 (11.5) %
Total TGF-β1 (STD) (TGF-β1 activation; LPS + CM serum-free, 100 µM): 1649.8 (71.7) pg/ml
Total TGF-β1 (STD) (TGF-β1 activation; LPS+CM with serum, 100 µM): 2472.6 (374.5) pg/ml
inhibition at 50 µM (TGF-β1 activation; Mus musculus, 50 µM): 69.6%
inhibition at 100 µM (TGF-β1 activation; Mus musculus, 100 µM): 32.9%
M6P/IGF II Receptor 24h (M6P/IGF-II receptor; M6P 1 µM): 98.4 (20.6)
M6P/IGF II Receptor 48h (M6P/IGF-II receptor; M6P 1 µM): 112.8 (21.4)
M6P/IGF II Receptor 24h (M6P/IGF-II receptor; M6P 10 µM): 86.1 (3.2)
M6P/IGF II Receptor 48h (M6P/IGF-II receptor; M6P 10 µM): 108 (7.1)
M6P/IGF II Receptor 24h (M6P/IGF-II receptor; M6P 50 µM): 74 (36.6)
M6P/IGF II Receptor 48h (M6P/IGF-II receptor; M6P 50 µM): 59.3 (1.4)
M6P/IGF II Receptor 24h (M6P/IGF-II receptor; M6P 100 µM): 85.4 (25)
M6P/IGF II Receptor 48h (M6P/IGF-II receptor; M6P 100 µM): 42.2 (3.2)
M6P/IGF II Receptor 24h (M6P/IGF-II receptor; M6P 200 µM): 57.5 (5.2)
M6P/IGF II Receptor 48h (M6P/IGF-II receptor; M6P 200 µM): 39.6 (1.3)
levels of mRNA for TGF-β1 (TGF-β1 [1]): remained the same
TGF-β1 48 h (TGF-β1 [2]; M6P 100 µM, 48h): 57.5 (15.9)

Compound: Cl.Cl.NCCCCN [Putrescine, putrescine-dihydrochloride]
Inhibition of TGF-β1 Activation, % control (STD) (TGF-β1 activation; 50 µM): 33.4 (28.8) %
Inhibition of TGF-β1 Activation, % control (STD) (TGF-β1 activation; 100 µM): 80.6 (15.5) %
inhibition at 50 µM (TGF-β1 activation; Mus musculus, 50 µM): 33.4%
inhibition at 100 µM (TGF-β1 activation; Mus musculus, 100 µM): 80.6 ± 15.5%

Reference: patent publication EP0956036B1, “ANTI-FIBROTIC AGENT ASSAY” (ETHICON, INC., priority 1996, dated 1998)
